± gives the standard deviation of the averaged measurements.
What was measured:
BI-2536 = compound: CC[C@@H]1C(=O)N(C)c2cnc(Nc3ccc(C(=O)NC4CCN(C)CC4)cc3OC)nc2N1C1CCCC1 [BI-2536]; assay: surviving fraction relative to DMSO-only wells; higher = less growth inhibition; details: exposure time: 5 days
Summary of the method: (§1)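 A line counted only if its three screens reached replicate Pearson r >0.7 and median Z' >0.3. Tumour cells in log phase were seeded at 250–500 per well in 384-well plates and, after 24 hours, kept in continuous contact with inhibitors at 0.5, 1, 5, 10, 50, 100, 500 and 1000 nM for five days. Surviving fraction was taken from CellTiter-Glo luminescence relative to the median of DMSO-only wells.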

MDV3100 = compound: CNC(=O)c1ccc(N2C(=S)N(c3ccc(C#N)c(C(F)(F)F)c3)C(=O)C2(C)C)cc1F [MDV3100]; assay: as above; details: exposure time: 5 days
Summary of the method: as §1

[1] = compound: Cn1cc(C2=Nc3cc(NC(=O)C(N)C4CCCCC4)cc4c3C2=CNNC4=O)cn1; assay: area under dose-response curve of surviving fraction (unscaled, Aref=0) (surviving fraction x log10(nM)); higher = more resistant; details: exposure time: 5 days; dose range 0.5-1000 nM
Summary of the method: (§2)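 Tumour cell lines in 384-well plates were exposed for five days to eight inhibitor concentrations from 0.5 to 1000 nM. Viability was read by CellTiter-Glo luminescence, normalised to DMSO-only wells, in three screens per line. Dose-response survival curves were fitted to surviving fractions by 3-parameter logistic regression in the drc R package. Area under the curve is the unscaled activity area (Aref = 0) over log10 dose.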

TIOGUANINE = compound: Nc1nc2[nH]cnc2c(=S)[nH]1 [TIOGUANINE]; assay: as above; details: exposure time: 5 days; dose range 0.5-1000 nM
Summary of the method: as §2

SAPACITABINE = compound: CCCCCCCCCCCCCCCC(=O)Nc1ccn([C@@H]2O[C@H](CO)[C@@H](O)[C@@H]2C#N)c(=O)n1 [SAPACITABINE]; assay: as above; details: exposure time: 5 days; dose range 0.5-1000 nM
Summary of the method: as §2

AFATINIB = compound: CN(C)C/C=C/C(=O)Nc1cc2c(Nc3ccc(F)c(Cl)c3)ncnc2cc1O[C@H]1CCOC1 [AFATINIB]; assay: as above; details: exposure time: 5 days; dose range 0.5-1000 nM
Summary of the method: as §2

Test System | surviving fraction (BI-2536; 0.5 nM) | surviving fraction (BI-2536; 1 nM) | surviving fraction (BI-2536; 5 nM) | surviving fraction (BI-2536; 10 nM) | surviving fraction (BI-2536; 50 nM) | surviving fraction (BI-2536; 100 nM) | surviving fraction (BI-2536; 500 nM) | surviving fraction (BI-2536; 1000 nM) | surviving fraction (MDV3100; 0.5 nM) | surviving fraction (MDV3100; 1 nM) | surviving fraction (MDV3100; 5 nM) | surviving fraction (MDV3100; 10 nM) | surviving fraction (MDV3100; 50 nM) | surviving fraction (MDV3100; 100 nM) | surviving fraction (MDV3100; 500 nM) | surviving fraction (MDV3100; 1000 nM) | area under dose-response curve [1] | area under dose-response curve (TIOGUANINE) | area under dose-response curve (SAPACITABINE) | area under dose-response curve (AFATINIB)
G292 BONE | 0.9403 ± 0.0023 | 0.659 ± 0.042 | 0.254 ± 0.012 | 0.23 ± 0.013 | 0.161 ± 0.011 | 0.128 ± 0.0057 | 0.0832 ± 0.0094 | 0.0727 ± 0.0063 | 0.9907 ± 0.009 | 1.03 ± 0.02 | 1.03 ± 0.059 | 1.02 ± 0.013 | 0.956 ± 0.032 | 0.985 ± 0.036 | 0.961 ± 0.013 | 0.865 ± 0.024 | 2.19 | 3.25 | 2.32 | 3.06
H23 LUNG | 1.09 ± 0.05 | 1.05 ± 0.048 | 0.991 ± 0.065 | 0.446 ± 0.016 | 0.272 ± 0.015 | 0.213 ± 0.015 | 0.16 ± 0.014 | 0.142 ± 0.0076 | 0.978 ± 0.013 | 0.95 ± 0.0056 | 0.944 ± 0.03 | 0.942 ± 0.011 | 0.954 ± 0.026 | 0.9877 ± 0.0021 | 0.93 ± 0.034 | 0.891 ± 0.02 | – | 3.25 | 2.6 | 1.57
HCC70 BREAST | 1.08 ± 0.026 | 0.933 ± 0.12 | 0.57 ± 0.047 | 0.35 ± 0.053 | 0.623 ± 0.041 | 0.795 ± 0.043 | 0.593 ± 0.042 | 0.391 ± 0.045 | 0.994 ± 0.021 | 0.955 ± 0.052 | 0.992 ± 0.085 | 0.963 ± 0.16 | 1.06 ± 0.082 | 0.979 ± 0.051 | 0.975 ± 0.076 | 0.88 ± 0.058 | 2.23 | 3.37 | 2.57 | –
HCT15 LARGE INTESTINE | 1.08 ± 0.044 | 1.04 ± 0.011 | 1.07 ± 0.026 | 0.887 ± 0.032 | 0.334 ± 0.048 | 0.0687 ± 0.014 | 0.069 ± 0.004 | 0.0617 ± 0.0076 | 0.906 ± 0.038 | 0.797 ± 0.11 | 0.862 ± 0.075 | 0.548 ± 0.11 | 0.938 ± 0.021 | 0.916 ± 0.027 | 0.968 ± 0.019 | 0.716 ± 0.1 | 3.4 | – | 1.34 | 3.26
HMT3552 BREAST | 0.781 | 0.352 | 0.14 | 0.192 | 0.221 | 0.205 | 0.121 | 0.11 | 1.02 ± 0.073 | 1.02 ± 0.079 | 1.02 ± 0.013 | 1.03 ± 0.065 | 1.14 ± 0.031 | 1.23 ± 0.023 | 1.18 ± 0.053 | 1.24 ± 0.086 | – | – | 2.99 | –
HS578T BREAST | 0.828 ± 0.093 | 0.73 ± 0.075 | 0.253 ± 0.013 | 0.196 ± 0.02 | 0.131 ± 0.015 | 0.132 ± 0.025 | 0.144 ± 0.0045 | 0.135 ± 0.012 | 0.974 ± 0.073 | 1.05 ± 0.041 | 1.03 ± 0.056 | 0.979 ± 0.091 | 1.15 ± 0.096 | 1.02 ± 0.28 | 1.01 ± 0.053 | 0.991 ± 0.085 | 2.39 | 3.13 | 2.8 | –
OSHN BONE | 1.09 ± 0.019 | 1.075 ± 0.0046 | 0.874 ± 0.072 | 0.027 ± 0.001 | 0.0297 ± 0.00058 | 0.022 ± 0.001 | 0.0237 ± 0.0021 | 0.0237 ± 0.0011 | 1.04 ± 0.02 | 1.02 ± 0.019 | 1.025 ± 0.0047 | 1.01 ± 0.015 | 1.067 ± 0.0085 | 1.07 ± 0.04 | 1.07 ± 0.026 | 1.041 ± 0.0068 | 2.6 | – | 2.83 | 3.58
RDES SOFT TISSUE | 1.05 ± 0.086 | 1.11 ± 0.12 | 0.603 ± 0.18 | 0.0407 ± 0.0038 | 0.034 ± 0.0036 | 0.024 ± 0.001 | 0.0287 ± 0.0015 | 0.0297 ± 0.0035 | 1.25 ± 0.1 | 1.07 ± 0.035 | 1.11 ± 0.064 | 1.15 ± 0.11 | 1.2 ± 0.086 | 1.12 ± 0.21 | 1.38 ± 0.074 | 1.25 ± 0.19 | 2.71 | – | 2.34 | 3.88
SCC47 HEADNECK | 1.05 ± 0.095 | 1.01 ± 0.066 | 0.455 ± 0.013 | 0.367 ± 0.034 | 0.403 ± 0.046 | 0.464 ± 0.045 | 0.437 ± 0.018 | 0.356 ± 0.02 | 0.936 ± 0.15 | 0.826 ± 0.021 | 1 ± 0.04 | 1.05 ± 0.21 | 1.09 ± 0.17 | 1.03 ± 0.14 | 0.906 ± 0.04 | 0.829 ± 0.11 | – | 2.97 | 3.12 | 2.35
SG27 HEADNECK | 0.99 ± 0.077 | 1.16 ± 0.1 | 1.04 ± 0.06 | 1.03 ± 0.098 | 1 ± 0.076 | 1 ± 0.1 | 0.391 ± 0.11 | 0.212 ± 0.068 | 1.064 ± 0.0067 | 1.01 ± 0.12 | 1.07 ± 0.13 | 0.935 ± 0.091 | 1.09 ± 0.04 | 1.19 ± 0.081 | 1.21 ± 0.2 | 1.17 ± 0.19 | 3.1 | 3.34 | – | 3.13
SG28 HEADNECK | 1.19 ± 0.14 | 1.063 ± 0.0017 | 0.864 ± 0.04 | 0.87 ± 0.046 | 0.961 ± 0.11 | 0.687 ± 0.064 | 0.478 ± 0.084 | 0.279 ± 0.053 | 1.19 ± 0.035 | 1.06 ± 0.0078 | 1.02 ± 0.086 | 0.762 ± 0.034 | 0.949 ± 0.062 | 1.01 ± 0.06 | 1.11 ± 0.067 | 0.946 ± 0.13 | 2.64 | 3.45 | – | 1.78
SG31 HEADNECK | 1.09 ± 0.11 | 1.27 ± 0.057 | 0.77 ± 0.099 | 0.603 ± 0.03 | 0.531 ± 0.031 | 0.573 ± 0.029 | 0.49 ± 0.034 | 0.438 ± 0.064 | 0.928 ± 0.059 | 1.06 ± 0.037 | 1.01 ± 0.14 | 1.02 ± 0.14 | 1.07 ± 0.057 | 0.969 ± 0.17 | 1.18 ± 0.18 | 1.06 ± 0.028 | 2.91 | – | 2.62 | 2.04
SUM149 BREAST | 1.05 ± 0.054 | 0.906 ± 0.091 | 0.122 ± 0.012 | 0.0487 ± 0.0035 | 0.0743 ± 0.0057 | 0.0903 ± 0.014 | 0.084 ± 0.01 | 0.0603 ± 0.0065 | 1.03 ± 0.047 | 0.922 ± 0.087 | 0.897 ± 0.038 | 0.36 ± 0.043 | 1.07 ± 0.095 | 0.951 ± 0.021 | 1.01 ± 0.092 | 0.546 ± 0.013 | 1.97 | – | 1.31 | 1.98
SUM149.B1*.S BREAST | 1.1 ± 0.091 | 1.05 ± 0.03 | 0.416 ± 0.067 | 0.232 ± 0.031 | 0.269 ± 0.032 | 0.287 ± 0.021 | 0.297 ± 0.045 | 0.229 ± 0.03 | 0.994 ± 0.02 | 0.925 ± 0.017 | 0.979 ± 0.063 | 0.578 ± 0.014 | 1.03 ± 0.04 | 0.9605 ± 0.0031 | 1.02 ± 0.011 | 0.694 ± 0.049 | 3.05 | 3.25 | 1.89 | –
SUM159 BREAST | 0.968 ± 0.2 | 0.967 ± 0.19 | 0.953 ± 0.18 | 0.864 ± 0.17 | 0.194 ± 0.035 | 0.167 ± 0.077 | 0.131 ± 0.057 | 0.134 ± 0.05 | 1.01 ± 0.034 | 1.005 ± 0.0052 | 1.01 ± 0.011 | 0.996 ± 0.01 | 1.01 ± 0.013 | 1.014 ± 0.0025 | 1.02 ± 0.015 | 0.9937 ± 0.0058 | 3.54 | – | 2.81 | 3.13
ZR751 BREAST | 1.22 ± 0.024 | 1.27 ± 0.16 | 0.902 ± 0.075 | 0.655 ± 0.0093 | 0.72 ± 0.13 | 0.865 ± 0.094 | 0.645 ± 0.039 | 0.434 ± 0.061 | 1.12 ± 0.16 | 1.14 ± 0.1 | 1.04 ± 0.042 | 1.04 ± 0.043 | 1.17 ± 0.1 | 1.12 ± 0.076 | 1.22 ± 0.1 | 1.08 ± 0.079 | 2.71 | – | 2.9 | 2.83

From the supplement of paper PMC6045584
